Several values for one entry are separate records, joined by “and”; a condition that tells them apart may be missing. Equal entries are not always repeated. Toxic doses and inconclusive results are not listed.
Test system: CD2F1 mice, L1210 leukemia ip, survival T/C
Assay: NCI In Vivo Anticancer Drug Screen. Data for tumor model L1210 Leukemia (intraperitoneal) in CD2F1 (CDF1) mice
Details: endpoint: mean survival time, higher = longer survival
Summary of the method: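 Tumor-bearing mice (transplanted tumor) were split into treated and vehicle control groups, and the measured endpoint of each treated group was divided by that of its vehicle controls.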

[1] = dose: 100.0 mg/kg/injection, schedule: Q01DX001 (ip), vehicle: saline with Tween-80
[2] = dose: 200.0 mg/kg/injection, schedule: Q01DX001 (ip), vehicle: saline with Tween-80
[3] = dose: 400.0 mg/kg/injection, schedule: Q01DX001 (ip), vehicle: saline with Tween-80
[4] = dose: 25.0 mg/kg/injection, schedule: Q01DX009 (ip), vehicle: saline with Tween-80
[5] = dose: 25.0 mg/kg/injection, schedule: Q04DX002 (ip), vehicle: saline with Tween-80
[6] = dose: 50.0 mg/kg/injection, schedule: Q01DX009 (ip), vehicle: saline with Tween-80
[7] = dose: 50.0 mg/kg/injection, schedule: Q04DX002 (ip), vehicle: saline with Tween-80
[8] = dose: 100.0 mg/kg/injection, schedule: Q04DX002 (ip), vehicle: saline with Tween-80
[9] = dose: 100.0 mg/kg/injection, schedule: Q01DX001 (ip), vehicle: saline
[10] = dose: 200.0 mg/kg/injection, schedule: Q01DX001 (ip), vehicle: saline
[11] = dose: 100.0 mg/kg/injection, schedule: Q01DX009 (ip), vehicle: saline with Tween-80
[12] = dose: 200.0 mg/kg/injection, schedule: Q01DX009 (ip), vehicle: saline with Tween-80
[13] = dose: 400.0 mg/kg/injection, schedule: Q01DX009 (ip), vehicle: saline with Tween-80
[14] = dose: 100.0 mg/kg/injection, schedule: Q04DX003 (ip), vehicle: saline with Tween-80
[15] = dose: 200.0 mg/kg/injection, schedule: Q04DX003 (ip), vehicle: saline with Tween-80
[16] = dose: 400.0 mg/kg/injection, schedule: Q04DX003 (ip), vehicle: saline with Tween-80

O=C(OC1=CCc2ccccc21)c1ccc([N+](=O)[O-])cc1
T/C (dose: 50.0 mg/kg/injection, schedule: Q01DX001 (ip), vehicle: saline with Tween-80): 101 % of control | T/C [1]: 96 % of control and 97 % of control | T/C [2]: 121 % of control and 96 % of control | T/C [3]: 95 % of control and 97 % of control

COCNC(=S)N/N=C/c1ccccn1
T/C (dose: 6.25 mg/kg/injection, schedule: Q01DX009 (ip), vehicle: saline with Tween-80): 97 % of control | T/C (dose: 12.5 mg/kg/injection, schedule: Q01DX009 (ip), vehicle: saline with Tween-80): 100 % of control | T/C (dose: 12.5 mg/kg/injection, schedule: Q04DX002 (ip), vehicle: saline with Tween-80): 94 % of control | T/C [4]: 97 % of control | T/C [5]: 97 % of control | T/C [6]: 122 % of control | T/C [7]: 97 % of control

CC1CC(C)(C)[N+](C)=C(CCc2ccccc2)O1 (stereo not given)
T/C [1]: 93 % of control

CC(=O)C1=C(O)C2(O)C(=O)c3c(c(C)c4ccc(C)c(O)c4c3O)CC2C(N)C1=O (stereo not given)
T/C (dose: 3.75 mg/kg/injection, schedule: Q01DX009 (ip), vehicle: saline + alcohol): 102 % of control and 105 % of control | T/C (dose: 7.3 mg/kg/injection, schedule: Q01DX009 (ip), vehicle: saline + alcohol): 103 % of control | T/C (dose: 7.5 mg/kg/injection, schedule: Q01DX009 (ip), vehicle: saline + alcohol): 107 % of control | T/C (dose: 15.0 mg/kg/injection, schedule: Q01DX009 (ip), vehicle: saline + alcohol): 107 % of control and 108 % of control | T/C (dose: 30.0 mg/kg/injection, schedule: Q01DX009 (ip), vehicle: saline + alcohol): 115 % of control | T/C (dose: 60.0 mg/kg/injection, schedule: Q01DX009 (ip), vehicle: saline + alcohol): 107 % of control and 111 % of control

COc1cc([N+](=O)[O-])ccc1NC=O
T/C [5]: 103 % of control | T/C [7]: 103 % of control | T/C [8]: 90 % of control

O=C(O)/C=C(/Br)C(=O)O
T/C [9]: 97 % of control | T/C [10]: 108 % of control

CNc1cc([N+](=O)[O-])ccc1Br
T/C (dose: 100.0 mg/kg/injection, schedule: Q04DX002 (ip), vehicle: other): 91 % of control | T/C (dose: 200.0 mg/kg/injection, schedule: Q04DX002 (ip), vehicle: other): 100 % of control | T/C (dose: 400.0 mg/kg/injection, schedule: Q04DX002 (ip), vehicle: other): 95 % of control

Cc1cc2nc(CN)[nH]c2cc1C
T/C (dose: 100.0 mg/kg/injection, schedule: Q04DX003 (ip), vehicle: saline): 98 % of control | T/C (dose: 200.0 mg/kg/injection, schedule: Q04DX003 (ip), vehicle: saline): 95 % of control

CC1C2CCC(C2)C1C(=O)O (stereo not given)
T/C [11]: 98 % of control | T/C (dose: 100.0 mg/kg/injection, schedule: Q04DX003 (ip), vehicle: other): 94 % of control | T/C [12]: 94 % of control | T/C (dose: 200.0 mg/kg/injection, schedule: Q04DX003 (ip), vehicle: other): 87 % of control | T/C [13]: 86 % of control | T/C (dose: 400.0 mg/kg/injection, schedule: Q04DX003 (ip), vehicle: other): 90 % of control

CCn1cnc(-c2ccccc2)c1-c1ccccc1
T/C [4]: 110 % of control | T/C [6]: 107 % of control | T/C [11]: 98 % of control | T/C [14]: 101 % of control

CCc1ncc(C(O)c2ccc(Cl)cc2)n1Cc1ccccc1 (stereo not given)
T/C [11]: 92 % of control | T/C [12]: 95 % of control | T/C [13]: 92 % of control

OC1(c2c(F)c(F)c(F)c(F)c2F)C2CCC1CC2 (stereo not given)
T/C (dose: 37.5 mg/kg/injection, schedule: Q04DX002 (ip), vehicle: saline with Tween-80): 98 % of control | T/C (dose: 75.0 mg/kg/injection, schedule: Q04DX002 (ip), vehicle: saline with Tween-80): 110 % of control | T/C (dose: 150.0 mg/kg/injection, schedule: Q04DX002 (ip), vehicle: saline with Tween-80): 98 % of control | T/C (dose: 300.0 mg/kg/injection, schedule: Q04DX002 (ip), vehicle: saline with Tween-80): 102 % of control

Nc1nc(N)c2nc(CN(CCO)c3ccc(C(=O)NC(CCC(=O)O)C(=O)O)cc3)cnc2n1 (stereo not given)
T/C (dose: 2.0 mg/kg/injection, schedule: Q01DX009 (ip), vehicle: Klucel (hydroxypropylcellulose) (HPC)): 162 % of control | T/C (dose: 4.0 mg/kg/injection, schedule: Q01DX009 (ip), vehicle: Klucel (hydroxypropylcellulose) (HPC)): 190 % of control | T/C (dose: 8.0 mg/kg/injection, schedule: Q01DX009 (ip), vehicle: Klucel (hydroxypropylcellulose) (HPC)): 171 % of control

CN(C=O)c1cc2c3c(c1)CCCN3CCC2
T/C [6]: 100 % of control | T/C [1]: 105 % of control | T/C [2]: 104 % of control

O=S1(=O)CCCCN1c1ccccn1
T/C [8]: 102 % of control | T/C (dose: 200.0 mg/kg/injection, schedule: Q04DX002 (ip), vehicle: saline with Tween-80): 94 % of control | T/C (dose: 400.0 mg/kg/injection, schedule: Q04DX002 (ip), vehicle: saline with Tween-80): 105 % of control

O=C(COc1ccc(Cl)cc1Cl)Nc1cc[n+](Cc2ccc(S(=O)(=O)F)cc2)cc1
T/C [14]: 98 % of control | T/C [15]: 98 % of control | T/C [16]: 95 % of control

O=C(Nc1ccc(Nc2ccc(NC(=O)c3ccccc3)c3c2C(=O)c2ccccc2C3=O)c2c1C(=O)c1ccccc1C2=O)c1ccccc1
T/C [11]: 95 % of control | T/C [14]: 108 % of control | T/C [12]: 95 % of control | T/C [15]: 100 % of control | T/C [13]: 100 % of control | T/C [16]: 102 % of control

O=C(CCl)n1nc(Cl)c2ccc([N+](=O)[O-])cc21
T/C [9]: 98 % of control | T/C [10]: 98 % of control

CC(C)S(=O)(=O)/C(Cl)=C(/Cl)C(Cl)=C(Cl)Cl
T/C [6]: 106 % of control

C=C(Br)CC1CCCCC1=O (stereo not given)
T/C [1]: 94 % of control | T/C (dose: 100.0 mg/kg/injection, schedule: Q01DX009 (ip), vehicle: saline sonified): 98 % of control | T/C [2]: 93 % of control | T/C (dose: 200.0 mg/kg/injection, schedule: Q01DX009 (ip), vehicle: saline sonified): 94 % of control | T/C [3]: 95 % of control | T/C (dose: 400.0 mg/kg/injection, schedule: Q01DX009 (ip), vehicle: saline sonified): 100 % of control

O=C(O)C1CC1c1ccccc1 (stereo not given)
T/C [14]: 95 % of control | T/C [15]: 103 % of control | T/C [16]: 100 % of control

[Cl][Pt+2][Cl].[NH-]c1cc(F)ccc1F.[NH-]c1cc(F)ccc1F
T/C (dose: 3.13 mg/kg/injection, schedule: Q04DX003 (ip), vehicle: distilled water + Tween-80): 112 % of control | T/C (dose: 6.25 mg/kg/injection, schedule: Q04DX003 (ip), vehicle: distilled water + Tween-80): 110 % of control | T/C (dose: 12.5 mg/kg/injection, schedule: Q04DX003 (ip), vehicle: distilled water + Tween-80): 112 % of control | T/C (dose: 25.0 mg/kg/injection, schedule: Q04DX003 (ip), vehicle: distilled water + Tween-80): 120 % of control | T/C (dose: 50.0 mg/kg/injection, schedule: Q04DX003 (ip), vehicle: distilled water + Tween-80): 110 % of control

C=CCCCCCCCCC(=O)NCC[N+](C)(C)C
T/C (dose: 6.25 mg/kg/injection, schedule: Q01DX009 (ip), vehicle: saline): 104 % of control | T/C (dose: 6.25 mg/kg/injection, schedule: Q04DX003 (ip), vehicle: saline): 96 % of control | T/C (dose: 12.5 mg/kg/injection, schedule: Q01DX009 (ip), vehicle: saline): 101 % of control | T/C (dose: 12.5 mg/kg/injection, schedule: Q04DX003 (ip), vehicle: saline): 97 % of control | T/C (dose: 25.0 mg/kg/injection, schedule: Q01DX009 (ip), vehicle: saline): 106 % of control | T/C (dose: 25.0 mg/kg/injection, schedule: Q04DX003 (ip), vehicle: saline): 102 % of control

CCCCN(CCCC)CC(O)c1ccccc1 (stereo not given)
T/C [8]: 88 % of control

O=C1COC(C(Cl)(Cl)Cl)CN1 (stereo not given)
T/C [11]: 98 % of control | T/C [14]: 102 % of control | T/C [12]: 95 % of control | T/C [15]: 100 % of control | T/C [13]: 102 % of control | T/C [16]: 104 % of control

C=C(COC(C)(C)C)CN(C)C
T/C [6]: 98 % of control | T/C [11]: 104 % of control
